Measurements published in ChEMBL document CHEMBL3885881, “DrugMatrix”.

Species: Rattus norvegicus
Assay: DrugMatrix - Regimen: Daily Repeat
Type: toxicity, organism-based, Sprague-Dawley
Parameters: regimen Daily Repeat, gender Male, age 6-8 weeks
Conditions: in vivo, ip, 0 mg/kg, route intraperitoneal, dose level Control, vehicle 100 % SALINE; for ABSOLUTE BASOPHIL / ABSOLUTE EOSINOPHIL / ABSOLUTE LYMPHOCYTE / ABSOLUTE MONOCYTE / ABSOLUTE SEGMENTED NEUTROPHIL / BASOPHIL / EOSINOPHIL / ERYTHROCYTE COUNT / HEMATOCRIT / HEMOGLOBIN / LEUKOCYTE COUNT / LYMPHOCYTE / MEAN CORPUSCULAR HEMOGLOBIN / MEAN CORPUSCULAR HEMOGLOBIN CONCENTRATION / MEAN CORPUSCULAR VOLUME / MONOCYTE / NEUTROPHIL / PLATELET COUNT: tissue Blood
[1] = 120 h, tissue Plasma, time 5 day
[2] = […], tissue Plasma, time 14 day
[3] = […], tissue Plasma, time 28 day

CARBOPLATIN
ABSOLUTE BASOPHIL (120 h, time 5 day): 32 cells/µL | ABSOLUTE EOSINOPHIL (120 h, time 5 day): 110 cells/µL | ABSOLUTE LYMPHOCYTE (120 h, time 5 day): 6630 cells/µL | ABSOLUTE MONOCYTE (120 h, time 5 day): 140 cells/µL | ABSOLUTE SEGMENTED NEUTROPHIL (120 h, time 5 day): 1170 cells/µL | BASOPHIL (120 h, time 5 day): 0.38% | EOSINOPHIL (120 h, time 5 day): 1.28% | ERYTHROCYTE COUNT (120 h, time 5 day): 7.45 x10E6/uL | HEMATOCRIT (120 h, time 5 day): 45.74% | HEMOGLOBIN (120 h, time 5 day): 14.72 G/DL | LEUKOCYTE COUNT (120 h, time 5 day): 8.11 x10E3/uL | LYMPHOCYTE (120 h, time 5 day): 81.3% | MEAN CORPUSCULAR HEMOGLOBIN (120 h, time 5 day): 19.76 pg | MEAN CORPUSCULAR HEMOGLOBIN CONCENTRATION (120 h, time 5 day): 32.16 G/DL | MEAN CORPUSCULAR VOLUME (120 h, time 5 day): 61.38 fL | MONOCYTE (120 h, time 5 day): 1.76% | NEUTROPHIL (120 h, time 5 day): 14.9% | PLATELET COUNT (120 h, time 5 day): 1322.4 x10E3/uL | ALANINE AMINOTRANSFERASE [1]: 25.8 u/L | ALBUMIN [1]: 3.64 G/DL | ASPARTATE AMINOTRANSFERASE [1]: 81.4 u/L | BLOOD UREA NITROGEN [1]: 14.4 mg/dL | CHOLESTEROL [1]: 69.2 mg/dL | CREATINE PHOSPHOKINASE [1]: 303.2 u/L | CREATININE [1]: 0.56 mg/dL | GLUCOSE [1]: 125.4 mg/dL | LACTATE DEHYDROGENASE [1]: 105.4 u/L | LIPASE [1]: 22.4 u/L | POTASSIUM [1]: 5.52 MEQ/L | SODIUM [1]: 147 MEQ/L | TOTAL BILIRUBIN [1]: 0.2 mg/dL | TOTAL PROTEIN [1]: 6.1 G/DL | URIC ACID [1]: 1.06 mg/dL | ABSOLUTE BASOPHIL ([…], time 14 day): 130 cells/µL | ABSOLUTE EOSINOPHIL ([…], time 14 day): 140 cells/µL | ABSOLUTE LYMPHOCYTE ([…], time 14 day): 13500 cells/µL | ABSOLUTE MONOCYTE ([…], time 14 day): 400 cells/µL | ABSOLUTE SEGMENTED NEUTROPHIL ([…], time 14 day): 2330 cells/µL | BASOPHIL ([…], time 14 day): 0.72% | EOSINOPHIL ([…], time 14 day): 0.86% | ERYTHROCYTE COUNT ([…], time 14 day): 7.74 x10E6/uL | HEMATOCRIT ([…], time 14 day): 45.98% | LEUKOCYTE COUNT ([…], time 14 day): 16.61 x10E3/uL | LYMPHOCYTE ([…], time 14 day): 81.34% | MEAN CORPUSCULAR HEMOGLOBIN ([…], time 14 day): 18 pg | MEAN CORPUSCULAR HEMOGLOBIN CONCENTRATION ([…], time 14 day): 30.22 G/DL | MEAN CORPUSCULAR VOLUME ([…], time 14 day): 59.4 fL | MONOCYTE ([…], time 14 day): 2.46% | NEUTROPHIL ([…], time 14 day): 14.14% | PLATELET COUNT ([…], time 14 day): 1445.5 x10E3/uL | ABSOLUTE BASOPHIL ([…], time 28 day): 91 cells/µL | ABSOLUTE EOSINOPHIL ([…], time 28 day): 110 cells/µL | ABSOLUTE LYMPHOCYTE ([…], time 28 day): 9910 cells/µL | ABSOLUTE MONOCYTE ([…], time 28 day): 210 cells/µL | ABSOLUTE SEGMENTED NEUTROPHIL ([…], time 28 day): 1560 cells/µL | BASOPHIL ([…], time 28 day): 0.77% | EOSINOPHIL ([…], time 28 day): 0.92% | ERYTHROCYTE COUNT ([…], time 28 day): 8.21 x10E6/uL | HEMATOCRIT ([…], time 28 day): 47.53% | HEMOGLOBIN ([…], time 28 day): 15.65 G/DL | LEUKOCYTE COUNT ([…], time 28 day): 11.91 x10E3/uL | LYMPHOCYTE ([…], time 28 day): 83.34% | MEAN CORPUSCULAR HEMOGLOBIN ([…], time 28 day): 19.07 pg | MEAN CORPUSCULAR HEMOGLOBIN CONCENTRATION ([…], time 28 day): 32.93 G/DL | MEAN CORPUSCULAR VOLUME ([…], time 28 day): 57.9 fL | MONOCYTE ([…], time 28 day): 1.68% | NEUTROPHIL ([…], time 28 day): 12.97% | PLATELET COUNT ([…], time 28 day): 1323.8 x10E3/uL | ALANINE AMINOTRANSFERASE [2]: 31.6 u/L | ALBUMIN [2]: 3.66 G/DL | ALKALINE PHOSPHATASE [2]: 228.6 u/L | ASPARTATE AMINOTRANSFERASE [2]: 79.6 u/L | BLOOD UREA NITROGEN [2]: 11.2 mg/dL | CHLORIDE [2]: 107 MEQ/L | CHOLESTEROL [2]: 57 mg/dL | CREATININE [2]: 0.5 mg/dL | GLUCOSE [2]: 124.4 mg/dL | LACTATE DEHYDROGENASE [2]: 106.4 u/L | LIPASE [2]: 24.4 u/L | PHOSPHORUS [2]: 10.52 mg/dL | POTASSIUM [2]: 6.34 MEQ/L | SODIUM [2]: 149.2 MEQ/L | TOTAL BILIRUBIN [2]: 0.2 mg/dL | TOTAL PROTEIN [2]: 6.48 G/DL | URIC ACID [2]: 0.94 mg/dL | ALANINE AMINOTRANSFERASE [3]: 30 u/L | ALBUMIN [3]: 3.71 G/DL | ALKALINE PHOSPHATASE [3]: 186.8 u/L | ASPARTATE AMINOTRANSFERASE [3]: 78.2 u/L | BLOOD UREA NITROGEN [3]: 14.2 mg/dL | CHOLESTEROL [3]: 44.9 mg/dL | CREATINE PHOSPHOKINASE [3]: 334.3 u/L | CREATININE [3]: 0.6 mg/dL | GLUCOSE [3]: 147.2 mg/dL | LACTATE DEHYDROGENASE [3]: 123.1 u/L | LIPASE [3]: 9.6 u/L | PHOSPHORUS [3]: 10.01 mg/dL | POTASSIUM [3]: 6.57 MEQ/L | SODIUM [3]: 149.5 MEQ/L | TOTAL BILIRUBIN [3]: 0.21 mg/dL | TOTAL PROTEIN [3]: 6.66 G/DL
